Holding throughout (experiment): relative viability (nuclei count vs DMSO), 5 days (fraction); higher = more cells survive
Compound in experiment [1]: CCC1=CN=CN=C1N2CCN(CC2)CC3=NC4=C(N3)C=C(C=C4)C(F)(F)F + CC(=O)c1c(C)c2cnc(Nc3ccc(N4CCNCC4)cn3)nc2n(C2CCCC2)c1=O [Palbociclib] (partner 0.5 µM)
Summed up: (§1)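 Five library-drug doses in √10 steps were combined with a fixed anchor-drug dose, or a single drug was given alone, by pin tool to lung cancer cell lines in 1536-well plates the day after seeding. Nuclei were stained and counted after 5 days. Relative viability is the nuclei count in treated wells over that in vehicle wells, taken as the median of duplicate plates.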

Compound in experiment [2]: CCC1=CN=CN=C1N2CCN(CC2)CC3=NC4=C(N3)C=C(C=C4)C(F)(F)F + CC(C)C[C@H](NC(=O)[C@H](Cc1ccccc1)NC(=O)c1cnccn1)B(O)O [Bortezomib] (partner 0.002 µM)
Summed up: as §1

Compound in experiment [3]: CCC1=CN=CN=C1N2CCN(CC2)CC3=NC4=C(N3)C=C(C=C4)C(F)(F)F + Nc1ncn([C@H]2C[C@H](O)[C@@H](CO)O2)c(=O)n1 [Decitabine] (partner 2 µM)
An outline of the steps:
as §1

Compound in experiment [4]: CCn1c(-c2nonc2N)nc2cnc(Oc3cccc(NC(=O)c4ccc(OCCN5CCOCC5)cc4)c3)cc21 + COc1cccc2cc(-c3nc([C@H]4CC[C@H](C(=O)O)CC4)n4ncnc(N)c34)[nH]c12 [OSI-027] (partner 0.5 µM)
An outline of the steps:
as §1

Take UMC-11: the relative viability in experiment [1] (first compound 0.04 µM) amounted to 0.331; in experiment [1] (first compound 0.1265 µM), 0.315; in experiment [1] (first compound 0.4 µM) it was 0.306; in experiment [1] (first compound 1.265 µM) it was 0.221; in experiment [1] (first compound 4 µM), 0.257; in experiment [2] (first compound 0.04 µM) it was 0.703. For the same cell line, the relative viability in experiment [2] (first compound 0.1265 µM) is 0.672; in experiment [2] (first compound 0.4 µM), 0.554; in experiment [2] (first compound 1.265 µM) it was 0.701; in experiment [2] (first compound 4 µM), 0.707; in experiment [3] (first compound 0.04 µM), 0.622; in experiment [3] (first compound 0.1265 µM), 0.562. Also, the relative viability in experiment [3] (first compound 0.4 µM) worked out at 0.602; in experiment [3] (first compound 1.265 µM), 0.379; in experiment [3] (first compound 4 µM), 0.351; in experiment [4] (first compound 0.04 µM), 0.44; in experiment [4] (first compound 0.1265 µM), 0.41; in experiment [4] (first compound 0.4 µM), 0.355. Besides, the relative viability is 0.208 in experiment [4] (first compound 1.265 µM) and 0.179 in experiment [4] (first compound 4 µM).

Values taken from the supplement of paper PMC10307832.
